Measured values reported in patent US6630496B1, “Inhibitors of phospholipase enzymes” (Genetics Institute LLC, priority 1996, dated 2003).
“And” between values parts separate entries of the source, which are not always exact repeats. Identical values can stand only once. Like-named read-outs stand apart in the source and are kept apart here.

Tests used:
cPLA2 [1] = target: T1, cPLA2 (Homo sapiens, UniProt P47712); test: Coumarine assay (7-hydroxycoumarinyl 6-heptenoate hydrolysis); assay type: biochemical
T1 sequence (P47712 1-749): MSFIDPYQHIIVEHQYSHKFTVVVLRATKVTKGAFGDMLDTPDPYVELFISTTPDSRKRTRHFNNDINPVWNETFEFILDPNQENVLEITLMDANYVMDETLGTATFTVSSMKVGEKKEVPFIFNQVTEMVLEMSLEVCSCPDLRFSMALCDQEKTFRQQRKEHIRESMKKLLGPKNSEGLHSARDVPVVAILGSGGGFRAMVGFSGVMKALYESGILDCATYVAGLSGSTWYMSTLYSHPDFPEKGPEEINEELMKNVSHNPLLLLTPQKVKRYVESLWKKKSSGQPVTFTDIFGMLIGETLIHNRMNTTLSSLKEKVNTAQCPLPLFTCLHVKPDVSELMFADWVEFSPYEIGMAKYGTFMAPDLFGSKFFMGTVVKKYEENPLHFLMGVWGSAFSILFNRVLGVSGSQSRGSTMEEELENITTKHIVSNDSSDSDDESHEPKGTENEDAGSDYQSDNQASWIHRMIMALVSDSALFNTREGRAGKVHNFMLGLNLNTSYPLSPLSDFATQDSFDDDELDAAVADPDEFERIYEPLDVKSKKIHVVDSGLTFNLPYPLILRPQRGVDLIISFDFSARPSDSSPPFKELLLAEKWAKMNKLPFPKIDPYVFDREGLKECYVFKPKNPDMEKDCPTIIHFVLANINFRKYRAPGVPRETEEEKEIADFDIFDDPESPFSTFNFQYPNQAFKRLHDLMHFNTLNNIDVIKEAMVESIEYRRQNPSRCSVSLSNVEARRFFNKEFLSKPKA
Experimental: (§1) 7-hydroxycoumarinyl 6-heptenoate was used as a monomeric substrate for cPLA2 as reported previously (Huang, Z. et al., 1994, Analytical Biochemistry 222, 110-115). Inhibitors were mixed with 200 μL assay buffer (80 mM Hepes, pH 7.5, 1 mM EDTA) containing 60 μM 7-hydroxycoumarinyl 6-heptenoate. The reaction was initiated by adding 4 μg cPLA2 in 50 μL assay buffer. Hydrolysis of the 7-hydroxycoumarinyl 6-heptenoate ester was monitored in a fluorometer by exciting at 360 nm and monitoring emission at 460 nm. Enzyme activity is proportional to the increasein emission at 460 nm per minute. In the presence of a cPLA2 inhibitor, the rate of increase is less.

[2] = test system: carrageenan-induced footpad edema; test: Rat carrageenan-induced footpad edema test; assay type: in vivo; conditions: iv, read-out: % inhibition of rat carrageenan-induced footpad edema
Experimental: Compounds of the present invention were also tested for in vivo activity in a rat paw edema test according to the procedure described in Example 89.
Rat Carrageenan-Induced Footpad Edema Test
Each compound was suspended in 0.3 ml absolute ethanol, 0.1 ml Tween-80 and 2.0 ml Dulbecco's PBS (without calcium or magnesium). To this mixture, 0.1 ml 1N NaOH was added. After solution was complete, additional amounts of PBS were added to adjust the concentration to 1 mg/ml. All comounds remained in solution. Compounds were administered i.v. in a volumne of 5 ml/kg to male Sprague Dawley rats at the same time that edema was induced by injection of 0.05 ml of 1% Type IV carrageenan into the hind footpad. Footpad volume was measured before dosing with compound and 3 hours after dosing with carageenan.

cPLA2 [3] = target: T1, cPLA2; test: Soluble substrate assay (LysoPC); assay type: biochemical
Experimental: (b) Soluble Substrate Assay (LysoPC)
(§2) The lipid was resuspended by vortexing 80 mM Hepes pH 7.5, 1 mM EDTA (1.2×final concentration). A typical assay consisted of lipid suspension (85 μl) to which was added consecutively the inhibitor (5 μl in DMSO) and cPLA2, 200 ng in 80 mM Hepes pH 7.5, 2 mM DTT and […]. This assay was conducted by either the manual assay or automated assay protocol described below.

cPLA2 [4] = target: T1, cPLA2; test: Activity assay of Example 136 (Table VIII; sub-assay not stated); assay type: biochemical; conditions: for IC50: concentration paired with 50 percent inhibition, read-out: CONCENTRATION (micromolar) @ PERCENT INHIBITION 50
Experimental: Activity data for the compounds of Examples 88-135 are reported in Table VIII (assay described in Example 136).
1-palmitoyl-2-V^14C] arachidonyl phosphotidylcholine (58 mCi/mmol) (final concentration 6 μM) and 1,2-dioleyolglycerol (final concentration 3 μM) were mixed and dried under a stream of nitrogen. To the lipids was added 50 mM Hepes pH 7.5 (2×final concentration of lipids) and the suspension was sonicated for 3 min. at 4° C. To the suspension was added 50 mM Hepes pH 7.5, 300 mM NaCl, 2 mM DTT, 2 mM CaCl2 and 2 mg/ml bovine serum albumin (BSA) (Sigma A7511) (1.2×final concentration of lipids). A typical assay consisted of the lipid mixture (85 μl) to which was added consecutively, the inhibitor (5 μl in DMSO) and cPLA2, 10 ng for an automated system or 1 ng for a manual assay, in 10 μl of the BSA buffer. This assay was conducted by either the manual assay or automated assay protocol described below.
as §2, with “1-[^14C]-palmitoyl-2-hydroxyphosphotidyl-choline (57 mCi/mmol) (final concentration 4.4 μM) was dried under a stream of nitrogen. The” for “The”
RBL-2H3 cells were routinely cultured as 37° C. in a 5% CO2 atmosphere in minimal essential medium containing nonessential amino acids and 12% fetal calf serum. The day before the experiment, cells were seeded into spinner flasks at 3×10^5 cells/ml and 100 ng/ml DNP specific-IgE was added. After 20 hrs, the cells were harvested by centrifugation and washed once in serum-free minimal essential media, and resuspended to 2×10^6 cells/ml in serum free media. The cells were then preincubated with either inhibitor in DMSO (1% v/v) or DMSO (1% v/v) for 15 min at 37° C. followed by stimulation with DNP-BSA (300 ng/ml). After 6 min, the cells were removed by centrifugation, and the supernatant was assayed for PGD2 content in accordance with known methods.
as §1

[5] = 60 μM 7-hydroxycoumarinyl 6-heptenoate, read-out: IC50 (μM) Coumarine
[6] = 1 mg/ml, 5 ml/kg, male Sprague Dawley rats, footpad volume 3 hours after carrageenan
[7] = NA = inhibitory activity not detected, read-out: IC50 (μM) Lyso PC

## O=C(O)c1cccc(NC(=O)c2cc3cc(OCc4ccccc4)ccc3n2Cc2ccc(COc3cc(C(F)(F)F)cc(C(F)(F)F)c3)cc2)c1 [Example 8]
cPLA2 [1]
  IC50: 3.8 µM
[2]; 3 h
  inhibition in vivo at 1000 µg/mL, 5 mg/kg: 29%
cPLA2 [3]
  IC50: 0.11 µM

## O=C(O)c1cc(NC(=O)c2cc3cc(OCc4ccccc4)ccc3n2Cc2ccc(C(F)(F)F)cc2C(F)(F)F)ccc1Oc1ccc(Cl)nc1 [Example 10]
cPLA2 [1]
  IC50: 28 µM
[2]; 3 h
  inhibition in vivo at 1000 µg/mL, 5 mg/kg: 8.9%
cPLA2 [3]
  IC50: 0.33 µM

## CCC(C)(C)c1ccc(OCC(=O)N2c3ccc(OCc4ccccc4)cc3CC2CSCC(=O)Nc2cccc(C(=O)O)c2)c(C(C)(C)CC)c1 (stereo not shown) [Example 17, 3-(2-(-5-Benzyloxy-1-(2,4-bis(1,1-dimethy)propyl)phenoxyacetyl)indolinyl)methylthioacetamidobenzoic Acid]
cPLA2 [1]; [5]
  IC50: 6 µM
[2]; [6]
  inhibition in vivo at 1000 µg/mL, 5 mg/kg: 29.3%
cPLA2 [3]; [7]
  IC50: 0.32 µM

## O=C(O)c1ccccc1SCC1Cc2cc(OCc3ccccc3)ccc2N1Cc1ccc2ccccc2c1 (stereo not shown) [Example 76]
cPLA2 [1]; [5]
  IC50: 4.5 µM
[2]; [6]
  inhibition in vivo at 1000 µg/mL, 5 mg/kg: 8.2%

## O=C(O)c1ccccc1SCC1Cc2cc(OCc3ccccc3)ccc2N1Cc1ccc(COc2cc(C(F)(F)F)cc(C(F)(F)F)c2)cc1 (stereo not shown) [Example 77]
cPLA2 [1]; [5]
  IC50: 2.5 µM
[2]; [6]
  inhibition in vivo at 1000 µg/mL, 5 mg/kg: 13%

## CS(=O)(=O)NC(=O)C1Cc2ccccc2N1Cc1ccc(C(F)(F)F)cc1C(F)(F)F (stereo not shown) [Example 84, N-Methylsulfonyl-2-(1-(2,4-bis(trifluoromethyl)benzyl)indolinyl)carboxamide]
cPLA2 [1]; [5]
  IC50: > 50 µM
cPLA2 [3]; [7]
  IC50: 23 µM

## O=C(NS(=O)(=O)c1ccccc1)C1Cc2ccccc2N1Cc1ccc(C(F)(F)F)cc1C(F)(F)F (stereo not shown) [Example 85]
cPLA2 [1]; [5]
  IC50: > 50 µM
cPLA2 [3]; [7]
  IC50: 21 µM

## O=C(O)c1ccc(CN2C(=O)S/C(=C/c3cc4cc(OCc5ccccc5)ccc4n3Cc3ccc(COc4cc(C(F)(F)F)cc(C(F)(F)F)c4)cc3)C2=O)cc1 [Example 88, 4-[(5-{(E)[5-(Benzyloxy)-1-(4-{[3,5-bis(trifluoromethyl)phenoxyl]methyl}benzyl)-1H-indol-2-yl]methylidene}-2,4-dioxo-1,3-thiazolan-3-yl)methyl]benzoic Acid]
cPLA2 [4]
  IC50: 3 µM

## O=C1NC(=O)/C(=C\c2cc3cc(OCc4ccccc4)ccc3n2Cc2ccc(Cc3ccccc3)cc2)S1 [Example 93, 5-{(E)-[1-(4-Benzylbenzyl)-5-(benzyloxy)-1H-indol-2-yl]methylidene}-1,3-thiazolane-2,4-dione]
cPLA2 [4]; 12.5 micromolar
  PERCENT INHIBITION @ CONCENTRATION 12.5 micromolar: 55%
cPLA2 [4]
  IC50: 12.5 µM

## O=C(O)CN1C(=O)S/C(=C/c2cc3cc(OCc4ccccc4)ccc3n2Cc2ccc(COc3cc(C(F)(F)F)cc(C(F)(F)F)c3)cc2)C1=O [Example 96, 2-(5-{(E)-[5-(Benzyloxy)-1-(4-{[3,5-bis(trifluoromethyl)phenoxy]methyl}benzyl)-1H-indol-2-yl]methylidene}-2,4-dioxo-1,3-thiazolan-3-yl)acetic Acid]
cPLA2 [4]
  IC50: 5 µM

## O=C(O)c1ccc(CN2C(=O)S/C(=C/c3cc4cc(OCc5ccccc5)ccc4n3Cc3ccc(Cl)cc3)C2=O)cc1 [Example 97, 4-[(5-{(E)-[5-(Benzyloxy)-1-(4-chlorobenzyl)-1H-indol-2yl]methylidene}2,4-dioxo-1,3-thiazolan-3-yl)methyl]benzoic Acid]
cPLA2 [4]
  IC50: 4.5 µM

## O=C1NC(=S)S/C1=C/c1cc2cc(OCc3ccccc3)ccc2n1Cc1ccc(C(F)(F)F)cc1C(F)(F)F [Example 101, 5-((E)-{5-(Benzyloxy)-1-[2,4-bis(trifluoromethyl)benzyl]-1H-indol-2-yl}methylidene)-2-thioxo-1,3-thiazolan-4-one]
cPLA2 [4]
  IC50: 10 µM

## O=C(O)c1ccc(CN2C(=O)/C(=C\c3cc4cc(OCc5ccccc5)ccc4n3Cc3ccc(C(F)(F)F)cc3C(F)(F)F)SC2=S)cc1 [Example 107, 4-{[5-((E)-{5-(Benzyloxy)-1-[2,4-bis(trifluoromethyl)benzyl]-1H-indol-2-yl}methylidene)-4-oxo-2-thioxo-1,3-thiazolan-3-yl]methyl}benzoic Acid]
cPLA2 [4]
  IC50: 3.8 µM

## O=C(O)c1cc2cc(-c3cc4ccccc4o3)ccc2n1Cc1ccccc1 [Example 110, 5-(1-Benzofuran-2-yl)-1-benzyl-1H-indole-2-carboxylic Acid]
cPLA2 [4]
  IC50: 50 µM

## O=C(O)c1cc2cc(-c3ccc(F)cc3)ccc2n1Cc1ccccc1 [Example 111, 1-Benzyl-5-(4-fluorophenyl)-1H-indole-2-carboxylic Acid]
cPLA2 [4]
  IC50: 13 µM

## COc1cccc(-c2ccc3c(c2)cc(C(=O)O)n3Cc2ccccc2)c1 [Example 112, 1-Benzyl-5-(3-methoxyphenyl)-1H-indole-2-carboxylic Acid]
cPLA2 [4]; 25 micromolar
  PERCENT INHIBITION @ CONCENTRATION 25 micromolar: 32%
cPLA2 [4]
  PERCENT INHIBITION @ CONCENTRATION 50 micromolar: 46%

## O=C(O)c1cc2cc(-c3ccccc3)ccc2n1Cc1ccccc1 [Example 113, 1-Benzyl-5-phenyl-1H-indole-2-carboxylic Acid]
cPLA2 [4]
  IC50: 170 µM

## O=C(O)c1cc(NC(=O)c2cc3cc(OCc4ccccc4)ccc3n2Cc2ccccc2)cc(C(=O)O)c1 [Example 123, 5-({[1-Benzyl-5-(benzyloxy)-1H-indol-2-yl]carbonyl}amino)isophthalic Acid]
cPLA2 [4]
  PERCENT INHIBITION @ CONCENTRATION 50 micromolar: 31% and 25%

## O=C(O)/C=C/c1cc2cc(OCc3ccccc3)ccc2n1Cc1ccc(C(F)(F)F)cc1C(F)(F)F [Example 125]
cPLA2 [4]
  IC50: 23 µM

## CC(=O)c1c(CSCC(=O)O)n(Cc2ccc(C(=O)c3nc4ccccc4s3)cc2)c2ccc(OCc3ccccc3)cc12 [Example 133]
cPLA2 [4]
  IC50: 8.5 µM

## CC(=O)c1c(CSc2ccccc2C(=O)O)n(Cc2ccc(C(=O)c3nc4ccccc4s3)cc2)c2ccc(OCc3ccccc3)cc12 [Example 134]
cPLA2 [4]
  IC50: 3.5 µM

## CC(=O)c1c(COc2ccc(C(=O)O)cc2)n(Cc2ccc(C(=O)c3nc4ccccc4s3)cc2)c2ccc(OCc3ccccc3)cc12 [Example 135]
cPLA2 [4]
  IC50: 9 µM
